Experimental findings from US20080255240A1, “Sulfonamide Derivatives” (Novo Nordisk A/S, priority 2004, published 2008) are described below.

Counter-ions that a name gives are not always drawn.

As for `Cc1cc(C(C)(C)C)c(O)c(S(=O)(=O)Nc2ccc(C#N)c(C(F)(F)F)c2)c1`, the melting point is 159 to 162 °C.
On to `CCC(C)c1cc(C(C)(C)C)c(O)c(S(=O)(=O)Nc2ccc([N+](=O)[O-])cc2Cl)c1` (stereo not shown) (as salt: Na) [Example 7, 5-sec-Butyl-3-tert-butyl-N-(2-chloro-4-nitro-phenyl)-2-hydroxy-benzenesulfonamide], for which the melting point lay in the range of 106 to 108 °C.
The figure for `Cc1cc(C(C)(C)C)c(O)c(S(=O)(=O)Nc2ccc([N+](=O)[O-])cc2Cl)c1` [Example 1, 3-tert-Butyl-N-(2-chloro-4-nitro-phenyl)-2-hydroxy-5-methyl-benzenesulfonamide] is 239 to 243 °C; for `Cc1cc(C(C)(C)C)c(O)c(S(=O)(=O)Nc2ccc(C#N)cc2Cl)c1` [Example 3, 3-tert-Butyl-N-(2-chloro-4-cyano-phenyl)-2-hydroxy-5-methyl-benzenesulfonamide] it is 101 to 105 °C.
Turning to `Cc1cc(C(C)(C)C)c(O)c(S(=O)(=O)Nc2ccc(I)cc2)c1` [Example 4, 3-tert-Butyl-2-hydroxy-N-(4-iodo-phenyl)-5-methyl-benzenesulfonamide], the melting point lay within 184 to 185 °C.
The figure for `COc1ccc(NS(=O)(=O)c2cc(C)cc(C(C)(C)C)c2O)cc1` [Example 5, 3-tert-Butyl-2-hydroxy-N-(4-methoxy-phenyl)-5-methyl-benzenesulfonamide] is 130 to 134 °C; for `CC(C)(C)c1cc(C(C)(C)C)c(O)c(S(=O)(=O)Nc2ccc([N+](=O)[O-])cc2Cl)c1` [Example 6, 3,5-Di-tert-butyl-N-(2-chloro-4-nitro-phenyl)-2-hydroxy-benzenesulfonamide] it is 158 to 161 °C.

One may read the melting point as the temperature, or range, at which the solid turns liquid.
